Starred links: 1 amine or outer side, 2 acyl side, 3 side chain; linkers in the order of their positions; H or OH if unused. Residues, ends and D or L forms follow the SMILES beside them. Groups on a side chain read outwards from the residue. *: point of attachment. Glutaryl = O=C(CCCC(=O)[*:2])[*:1]; NHNH2 = NN*
Key:
Format in all cases: cell-based
ARPE19 cells = assay: RLuc pDNA delivery, robotic library screening, ARPE19
HCT116 cells = assay: RLuc pDNA delivery, robotic library screening, HCT116
[1] = system: A549 cells expressing EGFP; assay: EGFP-targeting siRNA delivery (GFP silencing vs siMOCK), A549; settings: A549 cells
[2] = system: ARPE19 cells expressing EGFP; assay: EGFP-targeting siRNA delivery (GFP silencing vs siMOCK), ARPE19
Method in brief: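 This siRNA delivery assay used stably EGFP-expressing cells seeded a day ahead in 96-well plates. siGFP and amphiphile were combined in DMEM at a constant 30 nM siRNA, incubated 30 min at room temperature, then applied for 4 h before switching to fresh DMEM with 10% FBS. After 72 h, a plate reader measured fluorescence decrease relative to non-targeting siMOCK, subtracting untreated background.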

[3] = system: HepG2 cells expressing EGFP; assay: EGFP-targeting siRNA delivery (GFP silencing vs siMOCK), HepG2
Method in brief: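 After 72 h, a plate reader measured EGFP fluorescence in HepG2 EGFP cells transfected with amphiphile/siRNA complexes (30 nM siGFP). Silencing was expressed as percent fluorescence decrease relative to cells given non-targeting siMOCK, with untreated-cell background subtracted. Triplicate means were reported, and Lipofectamine RNAiMAX served as a comparison.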

[4] = system: ARPE19 cells expressing EGFP; assay: Cas9-RNP delivery against EGFP (gene editing, plate reader), ARPE19
Method in brief: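 EGFP-expressing cells, generated by stable transfection with EGFP pDNA and G-418 selection, were plated in 96-well plates at 50,000 cell/mL (100 μL/w) in DMEM+10% FBS+1% Gln-Abt. Cas9-RNP targeting EGFP was complexed with amphiphile for 30 min, applied for 4 h at 50 nM RNP, and EGFP fluorescence was read on a plate reader after 72 h.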

[5] = system: HepG2 cells expressing EGFP; assay: Cas9-RNP delivery against EGFP (gene editing, plate reader), HepG2
Method in brief: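 Gene editing in EGFP-expressing HepG2 cells was estimated as the percentage drop in GFP fluorescence, measured in triplicate on a plate reader 72 h after Cas9-RNP delivery with amphiphiles. The RNP was made from annealed crRNA/tracrRNA plus 4 μM Cas9 and complexed with amphiphile before a 4 h exposure. Background from untreated control cells was subtracted.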

## CC(=O)N[C@@H](CCCNC(=N)N)C(=O)N[C@@H](CCCCNC(=O)CCCC(=O)NN)C(=O)N[C@@H](Cc1c[nH]cn1)C(=O)N[C@@H](CCCNC(=N)N)C(=O)N[C@@H](CCCCNC(=O)CCCC(=O)NN)C(=O)N[C@@H](CCCCNC(=O)CCCC(=O)NN)C(=O)N[C@@H](Cc1c[nH]cn1)C(N)=O [7.3(L-H), Ac-RK*HRK*K*H-NH2] (Ac-RK([Glutaryl-NHNH2])HRK([Glutaryl-NHNH2])K([Glutaryl-NHNH2])H-NH2)
ARPE19 cells; Myristoleyl, 5 μM
  mean luminescent intensity (RLuc pDNA): 34050 RLU
ARPE19 cells; Myristoleyl, 10 μM
  mean luminescent intensity (RLuc pDNA): 40509 RLU
ARPE19 cells; Myristoleyl, 15 μM
  mean luminescent intensity (RLuc pDNA): 13457 RLU
ARPE19 cells; Palmitoleyl, 5 μM
  mean luminescent intensity (RLuc pDNA): 111815 RLU
ARPE19 cells; Palmitoleyl, 10 μM
  mean luminescent intensity (RLuc pDNA): 92487 RLU
ARPE19 cells; Palmitoleyl, 15 μM
  mean luminescent intensity (RLuc pDNA): 55716 RLU
ARPE19 cells; Petroselinyl, 5 μM
  mean luminescent intensity (RLuc pDNA): 79286 RLU
ARPE19 cells; Petroselinyl, 10 μM
  mean luminescent intensity (RLuc pDNA): 77882 RLU
ARPE19 cells; Petroselinyl, 15 μM
  mean luminescent intensity (RLuc pDNA): 15465 RLU
ARPE19 cells; palmitoleyl aldehyde
  pDNA delivery, times better than Lipofectamine 2000: 10 times
ARPE19 cells; petroselinyl aldehyde
  pDNA delivery, times better than Lipofectamine 2000: 7 times
HCT116 cells; Myristoleyl, 5 μM
  mean luminescent intensity (RLuc pDNA): 193237 RLU
HCT116 cells; Myristoleyl, 10 μM
  mean luminescent intensity (RLuc pDNA): 172603 RLU
HCT116 cells; Myristoleyl, 15 μM
  mean luminescent intensity (RLuc pDNA): 42433 RLU
HCT116 cells; Palmitoleyl, 5 μM
  mean luminescent intensity (RLuc pDNA): 294813 RLU
HCT116 cells; Palmitoleyl, 10 μM
  mean luminescent intensity (RLuc pDNA): 248907 RLU
HCT116 cells; Palmitoleyl, 15 μM
  mean luminescent intensity (RLuc pDNA): 89543 RLU
HCT116 cells; Petroselinyl, 5 μM
  mean luminescent intensity (RLuc pDNA): 147949 RLU
HCT116 cells; Petroselinyl, 10 μM
  mean luminescent intensity (RLuc pDNA): 114522 RLU
HCT116 cells; Petroselinyl, 15 μM
  mean luminescent intensity (RLuc pDNA): 48178 RLU
HCT116 cells; palmitoleyl aldehyde
  pDNA delivery, times better than Lipofectamine 2000: up to 10 times
[1]; Myristoleyl, 5 μM
  percentage of GFP-silencing relative to siMOCK: 18%
[1]; Myristoleyl, 10 μM
  percentage of GFP-silencing relative to siMOCK: 22%
[1]; Myristoleyl, 15 μM
  percentage of GFP-silencing relative to siMOCK: 31%
[1]; Oleyl, 5 μM
  percentage of GFP-silencing relative to siMOCK: 2%
[1]; Oleyl, 10 μM
  percentage of GFP-silencing relative to siMOCK: 14%
[1]; Oleyl, 15 μM
  percentage of GFP-silencing relative to siMOCK: 21%
[1]; Palmitoleyl, 15 μM
  percentage of GFP-silencing relative to siMOCK: 40%
[1]; Petroselinyl, 10 μM
  percentage of GFP-silencing relative to siMOCK: 20%
[1]; Petroselinyl, 15 μM
  percentage of GFP-silencing relative to siMOCK: 52%
[2]; Dodecanal, 5 μM
  percentage of GFP-silencing relative to siMOCK: 10%
[2]; Myristoleyl, 5 μM
  percentage of GFP-silencing relative to siMOCK: 45%
[2]; Myristoleyl, 10 μM
  percentage of GFP-silencing relative to siMOCK: 45%
[2]; Oleyl, 5 μM
  percentage of GFP-silencing relative to siMOCK: 15%
[2]; Oleyl, 10 μM
  percentage of GFP-silencing relative to siMOCK: 47%
[2]; Oleyl, 15 μM
  percentage of GFP-silencing relative to siMOCK: 46%
[2]; Palmitoleyl, 5 μM
  percentage of GFP-silencing relative to siMOCK: 49%
[2]; Palmitoleyl, 10 μM
  percentage of GFP-silencing relative to siMOCK: 65%
[2]; Palmitoleyl, 15 μM
  percentage of GFP-silencing relative to siMOCK: 40%
[2]; Petroselinyl, 5 μM
  percentage of GFP-silencing relative to siMOCK: 5%
[3]; Myristoleyl, 15 μM
  percentage of GFP-silencing relative to siMOCK: −13%
[3]; Oleyl, 10 μM
  percentage of GFP-silencing relative to siMOCK: −9%
[3]; Palmitoleyl, 15 μM
  percentage of GFP-silencing relative to siMOCK: 10%
[3]; Petroselinyl, 15 μM
  percentage of GFP-silencing relative to siMOCK: 1%
[4]; Myristoleyl, 5 μM
  percentage of gene editing, GFP fluorescence intensity decrease (% of reduction): 19%
[4]; Myristoleyl, 15 μM
  percentage of gene editing, GFP fluorescence intensity decrease (% of reduction): 12%
[4]; Oleyl, 5 μM
  percentage of gene editing, GFP fluorescence intensity decrease (% of reduction): 1%
[4]; Oleyl, 10 μM
  percentage of gene editing, GFP fluorescence intensity decrease (% of reduction): 6%
[4]; Oleyl, 15 μM
  percentage of gene editing, GFP fluorescence intensity decrease (% of reduction): 15%
[4]; Palmitoleyl, 5 μM
  percentage of gene editing, GFP fluorescence intensity decrease (% of reduction): 37%
[4]; Palmitoleyl, 10 μM
  percentage of gene editing, GFP fluorescence intensity decrease (% of reduction): 31%
[4]; Petroselinyl, 5 μM
  percentage of gene editing, GFP fluorescence intensity decrease (% of reduction): 18%
[5]; Dodecanal, 10 μM
  percentage of gene editing, GFP fluorescence intensity decrease (% of reduction): −28%
[5]; Dodecanal, 15 μM
  percentage of gene editing, GFP fluorescence intensity decrease (% of reduction): −28%
[5]; Myristoleyl, 5 μM
  percentage of gene editing, GFP fluorescence intensity decrease (% of reduction): −16%
[5]; Myristoleyl, 10 μM
  percentage of gene editing, GFP fluorescence intensity decrease (% of reduction): −25%
[5]; Myristoleyl, 15 μM
  percentage of gene editing, GFP fluorescence intensity decrease (% of reduction): −19%
[5]; Oleyl, 5 μM
  percentage of gene editing, GFP fluorescence intensity decrease (% of reduction): −17%
[5]; Oleyl, 10 μM
  percentage of gene editing, GFP fluorescence intensity decrease (% of reduction): −13%
[5]; Oleyl, 15 μM
  percentage of gene editing, GFP fluorescence intensity decrease (% of reduction): −12%
[5]; Palmitoleyl, 5 μM
  percentage of gene editing, GFP fluorescence intensity decrease (% of reduction): −23%
[5]; Palmitoleyl, 10 μM
  percentage of gene editing, GFP fluorescence intensity decrease (% of reduction): −12%
[5]; Palmitoleyl, 15 μM
  percentage of gene editing, GFP fluorescence intensity decrease (% of reduction): −25%
[5]; Petroselinyl, 10 μM
  percentage of gene editing, GFP fluorescence intensity decrease (% of reduction): −20%

Reference: patent US20250304623A1, “PEPTIDES FOR INTRACELLULAR DELIVERY” (UNIVERSIDADE DE SANTIAGO DE COMPOSTELA, priority 2022, published 2025)
